Laboratory results: patent US11485751B2, “Apramycin derivatives” (WAYNE STATE UNIVERSITY, priority 2017, dated 2022)
Values after ≈ are worked out from the molar mass of the structure shown. Where two headings read alike, the source gives them in different places.

Legend:
[1] = tested on: AG290, Enterobacter cloacae; experiment: MIC reference strain AG290; assay type: cell-based; conditions: for MIC: Enterobacter cloacae, read-out: MIC AG290 E. cloacae
From the text: (§1) Minimal inhibitory concentrations (MIC) have been determined by broth microdilution assays (CLSI. Methods for Dilution Antimicrobial Susceptibility Tests for Bacteria That Grow Aerobically; Approved Standard—Tenth Edition. CLSI document M07-A10. Wayne, Pa.: Clinical and Laboratory Standards Institute; 2015.).
(§2) Table 4 and 5 show the antibacterial activity of the compounds of the invention against bacterial reference strains (table 4) and against representative clinical isolates (table 5).
(§3) Legend to Tables: GEN, gentamicin; AMK, amikacin; PLZ, plazomicin; APR, apramycin; AG212, Escherichia coli ATCC25922; AG215, Klebsiella pneumonia; AG220, Pseudomonas aeruginosa ATCC27853; AG225, Acinetobacter baumannii pittii; AG290, Enterobacter cloacae; […], Mycobacterium smegmatis. MICs for AG192 have been determined in the presence of 0.5 μg/mL of ampicillin in the medium to mimic the synergistic effect of aminoglycoside and β-lactam antibiotics combination therapy in the treatment of Enterococcus infections in humans.

[2] = tested on: Engineered E. coli pH425 rmtB; experiment: Activity against G1405-methylated 16S-rRNA, E. coli pH425 rmtB; assay type: cell-based
From the text: as §1

[3] = tested on: SZ380, Mycobacterium smegmatis; experiment: MIC reference strain SZ380; assay type: cell-based; conditions: reference strain
From the text: as §1, §2, §3

[4] = tested on: Engineered E. coli pH426 rmtC; experiment: Activity against G1405-methylated 16S-rRNA, E. coli pH426 rmtC; assay type: cell-based
From the text: as §1

[5] = tested on: AG220, Pseudomonas aeruginosa ATCC27853; experiment: MIC reference strain AG220; assay type: cell-based; conditions: for MIC: Pseudomonas aeruginosa
From the text: as §1, §2, §3

[6] = tested on: AG033 P. aer. APH(3′)-II AAC(6′)-I; experiment: Antibacterial activity, clinical isolate AG033; assay type: cell-based; parameters: unit not given here
From the text: as §1, §2

[7] = tested on: Engineered E. coli pH430 WT; experiment: Activity, engineered E. coli pH430 WT; assay type: cell-based; conditions: wild type
From the text: as §1

[8] = tested on: AG042 MRSA AAC(6′)-I ANT(4′)-I APH(2′); experiment: Antibacterial activity, clinical isolate AG042; assay type: cell-based; parameters: unit not given here
From the text: as §1, §2

[9] = tested on: ATCC19977 M. abcessus; experiment: MIC reference strain ATCC19977; assay type: cell-based; conditions: for MIC: read-out: MIC ATCC19977 M. abcessus
From the text: as §1, §2

[10] = tested on: human mitochondrial ribosomes; experiment: in-vitro translation assay, human mitochondrial (human chimeric) ribosomes; assay type: biochemical
From the text: (§4) IC50 values for bacterial, human chimeric, and rabbit reticulocyte ribosomes have been determined by in-vitro translation assays as described previously (Proc. Nat. Ac. Sci USA 2012, 109(27):10984-10989).
(§5) Minimal inhibitory concentrations (MICs, […]) against clinical isolates from Institute of Medical Microbiology, Univ. Zurich, and the IC50 values for bacterial, human mitochondrial and human cytosolic ribosomes are indicated.

[11] = tested on: isolates carrying apmA; experiment: MIC broth microdilution, apmA; assay type: cell-based; conditions: apmA resistance gene
From the text: Minimal inhibitory concentrations (MIC) have been determined by broth microdilution assays (CLSI. Methods for Dilution Antimicrobial Susceptibility Tests for Bacteria That Grow Aerobically; Approved Standard—Tenth Edition. CLSI document M07-A10. Wayne, Pa.: Clinical and Laboratory Standards Institute; 2015.). […]
(§6) Minimal inhibitory concentrations (μg/ml) against clinical isolates from Institute of Medical Microbiology, Univ. Zurich, and the IC50 values for bacterial, human mitochondrial and human cytosolic ribosomes are indicated.
(§7) The Minimal inhibitory concentrations (MICs, μg/ml) against clinical isolates from Institute of Medical Microbiology, Univ Zurich, and the IC50 values for bacterial, human mitochondrial and human cytosolic ribosomes are indicated.

[12] = tested on: clinical isolates carrying AAC(3)-IV; experiment: MIC broth microdilution, AAC(3)-IV; assay type: cell-based; conditions: clinical isolates, IMM Univ. Zurich, AAC(3)-IV
From the text: as §1, §5, §6, §7

[13] = tested on: AG225, Acinetobacter baumannii pittii; experiment: MIC reference strain AG225; assay type: cell-based; conditions: for MIC: Acinetobacter baumannii, read-out: MIC AG225 A. baumannii
From the text: as §1, §2, §3

[14] = tested on: AG003 E. coli AAC(3)-II; experiment: Antibacterial activity, clinical isolate AG003; assay type: cell-based
From the text: as §1, §2

[15] = tested on: AG215, Klebsiella pneumonia; experiment: MIC reference strain AG215; assay type: cell-based; conditions: for MIC: Klebsiella pneumoniae, read-out: MIC AG215 K. pneumonia
From the text: as §1, §2, §3

[16] = tested on: AG031 P. aer. APH(3′)-II; experiment: Antibacterial activity, clinical isolate AG031; assay type: cell-based; parameters: unit not given here
From the text: as §1, §2

[17] = tested on: Engineered E. coli pH424 armA; experiment: Activity against G1405-methylated 16S-rRNA, E. coli pH424 armA; assay type: cell-based
From the text: as §1

[18] = tested on: AG039 MRSA AAC(6′)-I ANT(4′)-I; experiment: Antibacterial activity, clinical isolate AG039; assay type: cell-based
From the text: as §1, §2

[19] = tested on: bacterial ribosomes; experiment: in-vitro translation assay, bacterial ribosomes; assay type: biochemical
From the text: as §4, §5

[20] = tested on: Engineered E. coli AG103 armA; experiment: Activity against G1405-methylated 16S-rRNA, E. coli AG103 armA; assay type: cell-based
From the text: as §1

[21] = tested on: Engineered E. coli pH427 rmtF; experiment: Activity against G1405-methylated 16S-rRNA, E. coli pH427 rmtF; assay type: cell-based
From the text: as §1

[22] = tested on: AG032 P. aer. APH(3′)-II; experiment: Antibacterial activity, clinical isolate AG032; assay type: cell-based; parameters: unit not given here
From the text: as §1, §2

[23] = tested on: AG173 E. coli AAC(3)-IV; experiment: Antibacterial activity, clinical isolate AG173; assay type: cell-based
From the text: as §1, §2

[24] = tested on: AG001 E. coli WT; experiment: Antibacterial activity, clinical isolate AG001; assay type: cell-based; parameters: unit not given here
From the text: as §1, §2

[25] = tested on: AG212, Escherichia coli ATCC25922; experiment: MIC reference strain AG212; assay type: cell-based; conditions: for MIC: Escherichia coli
From the text: as §1, §2, §3

[26] = tested on: AG055 E. coli WT; experiment: Antibacterial activity, clinical isolate AG055; assay type: cell-based; parameters: unit not given here
From the text: as §1, §2

[27] = tested on: AG038 MRSA; experiment: Antibacterial activity, clinical isolate AG038; assay type: cell-based; parameters: unit not given here
From the text: as §1, §2

[28] = tested on: human cytosolic ribosomes; experiment: in-vitro translation assay, human cytosolic ribosomes; assay type: biochemical
From the text: as §4, §5

[29] = tested on: WT clinical isolates; experiment: MIC broth microdilution, WT; assay type: cell-based; conditions: wild type; for MIC: read-out: MIC WT, clinical isolates, IMM Univ. Zurich
From the text: as §1, §5, §6, §7

[30] = ATCC27853, reference strain ATCC27853, read-out: MIC AG220 P. aeruginosa
[31] = reference strain ATCC25922, read-out: MIC AG212 E. coli

SMILES	Activity E. coli pH425 rmtB [2]	Activity E. coli pH426 rmtC [4]	Antibacterial activity AG033 P. aer. APH(3′)-II AAC(6′)-I [6]	Activity E. coli pH430 WT [7]	Antibacterial activity AG042 MRSA AAC(6′)-I ANT(4′)-I APH(2′) [8]	IC50 [10] [µM]	Antibacterial activity AG003 E. coli AAC(3)-II [14]	Antibacterial activity AG031 P. aer. APH(3′)-II [16]	Activity E. coli pH424 armA [17]	Antibacterial activity AG039 MRSA AAC(6′)-I ANT(4′)-I [18]	IC50 [19] [µM]	Activity E. coli AG103 armA [20]	Activity E. coli pH427 rmtF [21]	Antibacterial activity AG032 P. aer. APH(3′)-II [22]	Antibacterial activity AG173 E. coli AAC(3)-IV [23]	Antibacterial activity AG001 E. coli WT [24]	Antibacterial activity AG055 E. coli WT [26]	Antibacterial activity AG038 MRSA [27]	IC50 [28] [µM]	MIC [29] [µg/mL]	further results
CNC1C(OC2OC(CO)C(N)C(O)C2O)OC2CC(N)C(OC3C(N)CC(N)C(O)C3F)OC2C1O (stereo not drawn) [DC168, 5-Deoxy-5-epi-fluoro apramycin]	2	2	32	2	4	30	4	8-16	2	2-4	0.05	1	2	8-16	128	8	4	2-4	28	–	MIC AG290 E. cloacae ([1]; reference strain): 4 µg/mL; MIC SZ380 M. smegmatis [3]: 0.125 µg/mL; MIC AG220 P. aeruginosa ([5]; reference strain ATCC27853): 4 µg/mL; MIC ATCC19977 M. abcessus ([9]; reference strain): 1 µg/mL (≈ 1.85 µM); MIC apmA [11]: 4 µg/mL (≈ 7.39 µM); MIC AAC(3)-IV [12]: >32 µg/mL; MIC AG225 A. baumannii ([13]; reference strain): 4 µg/mL; MIC AG215 K. pneumonia ([15]; reference strain): 1 µg/mL; MIC AG212 E. coli ([25]; reference strain ATCC25922): 4 µg/mL; MIC WT ([29]; clinical isolates, IMM Univ. Zurich): 2 µg/mL (≈ 3.69 µM)
CNC1C(OC2OC(CO)C(N)C(O)C2O)OC2CC(N)C(OC3C(N)CC(N)C(O)C3OCC(O)CN)OC2C1O (stereo not drawn) [DC212]	–	–	–	–	–	158	–	8	–	–	0.1	–	–	–	–	8	–	4	112	4 (≈ 6.53 µM)	MIC [1]: 4 µg/mL; MIC ([5]; ATCC27853, read-out: MIC AG220 P. aeruginosa): 4 µg/mL; MIC [13]: 4 µg/mL; MIC [15]: 2 µg/mL; MIC ([25]; ATCC25922, read-out: MIC AG212 E. coli): 4 µg/mL
CNC1C(OC2OC(CO)C(N)C(O)C2O)OC2CC(N)C(OC3CC(O)C(N)CC3N)OC2C1O (stereo not drawn) [DC169, 5-Deoxy-apramycin]	4	4	16	4	4	45	4	8	2	2	0.06	1	4	8	32	4	4	2-4	42	4 (≈ 7.64 µM)	MIC ([1]; reference strain): 2 µg/mL; MIC ([3]; Mycolicibacterium smegmatis, read-out: MIC SZ380 M. smegmatis): 0.125 µg/mL; MIC [5, 30]: 4 µg/mL; MIC [9]: 1 µg/mL (≈ 1.91 µM); MIC [11]: 16 µg/mL (≈ 30.6 µM); MIC ([12]; read-out: MIC AAC(3)-IV): > 32 µg/mL; MIC ([13]; reference strain): 4 µg/mL; MIC ([15]; reference strain): 2 µg/mL; MIC [25, 31]: 4 µg/mL
CN[C@@H]1[C@@H](O)[C@@H](O[C@@H]2[C@@H](O)[C@H](O[C@H]3OC(CNCCO)=CC[C@H]3N)[C@@H](N)C[C@H]2NC(=O)[C@@H](O)CCN)OC[C@]1(C)O [PLZ, plazomicin, reference compound]	–	–	16-32	0.5	2	–	2-4	4	–	2-4	–	>32	–	4	–	2-4	2-4	2-4	–	–	MIC ([1]; reference strain): 0.5 µg/mL; MIC [5, 30]: 2 to 4 µg/mL; MIC [9]: 4 µg/mL (≈ 6.75 µM); MIC ([13]; reference strain): 2 µg/mL; MIC ([15]; reference strain): 0.25 to 0.5 µg/mL; MIC [25, 31]: 0.5 to 1 µg/mL
